Literature values in paper PMC3086271 (Biochemical Journal, 2011).
Read-outs that look alike come from different tables or passages of the source. Each block holds one compound with its values, some of them ahead of it.

Key:
[1] = tested on: mean arterial blood pressure; details: spontaneous hypertensive rat, intravenous, 10 mg/kg of body weight
[2] = biological target: N-ACE of human somatic ACE; details: read-out: Ki for N-ACE
[3] = biological target: C-ACE of human somatic ACE; details: read-out: Ki for C-ACE

Compound: O=C(N[C@@H](Cc1ccccc1)P(=O)(O)CC(Cc1cc(-c2ccccc2)no1)C(=O)N[C@@H](Cc1ccc(O)cc1)C(=O)O)OCc1ccccc1 (stereo partly drawn) [FII, (2S)-2-({3[hydroxyl(2-phenyl-(1R)-1-{[(benzyloxy)carbonyl]-amino}ethyl)phosphinyl]-2-[(3-phenylisoxazol-5-yl)methyl]-1-oxo-propyl}amino)-3-(4-hydroxy-phenyl) propanoic acid]
- lowering of mean arterial blood pressure as compared with controls [1]: 24±2 mmHg

- Ki [2]: 2500 nM
- Ki ([3]; C-ACE-specific phosphinic inhibitor): 3 nM
Compound: O=C(N[C@@H](Cc1ccccc1)P(=O)(O)C1CCCC1C(=O)N[C@@H](Cc1c[nH]c2ccccc12)C(=O)O)OCc1ccccc1 (some centres unmarked) [RXPA380]

- Ki ([2]; N-ACE of human somatic ACE): 44 nM
- Ki ([3]; C-ACE of human somatic ACE): 2.4 nM
Compound: NCCCC[C@H](N[C@@H](CCc1ccccc1)C(=O)O)C(=O)N1CCC[C@H]1C(=O)O [lisinopril]
